According to patent US20040039211A1, “Tetrapyrroles” (DUKE UNIVERSITY AND NATIONAL JEWISH MEDICAL AND RESEARCH …, priority 2000, published 2004):
Read-outs that look alike come from different tables or passages of the source. Marks after values point to notes of the source that are not given here. Blank lines part the entries; values can stand above or below the compound they belong to.

Columns and labels:
[1] = Hydrolysis / dissociation of the complex in methanol/aqueous or water solution; assay type: physicochemical; details: water
Experimental: Uv/vis Spectroscopy. […] Also the effects of EDTA, H2O2, and the methanol/water ratio on the stability of the manganese(III) complex were examined. […] […] 79:699 (1960)). When needed the biliverdin and biliverdin dimethylester as well as their reduced forms bilirubin and bilirubin dimethylester were studied. […] In a week, at 25° C., only 14% of the complex dissociated. When the water content was increased to 43%, half the complex dissociated in a week.

[2] = tested on: SOD-deficient E. coli JI132; assay: Aerobic growth of SOD-deficient E. coli in minimal medium; assay type: cell-based; details: minimal (five amino acids) medium
Experimental: FIG. 13. […] The 20 mM ethanolic/albumin solution of compound was diluted into the medium. Also the growth of SOD-deficient E. coli was followed in the presence of 0.15% ethanol only (squares).
SOD activity can be monitored in the presence and absence of EDTA using the method of McCord and Fridovich (J. Biol. Chem. 244:6049 (1969)). The efficacy of a mimetic can also be determined by measuring the effect of the mimetic on the aerobic growth of a SOD null E. coli strain versus a parent strain. Specifically, parental E. coli (AB1157) and SOD null E. coli. […]
Effects on E. coli. E. coli strains AB1157 (SOD-proficient, wild type) and JI132 (SOD-deficient, sodAsodB) were obtained from J. A. Imlay (Imlay et al, J. Bacteriol. 169:2967 (1987)). […] Cultures were treated as previously described (Faulkner et al, J. Biol. Chem. 269:23471 (1994); Benov et al, J. Biol. Chem. 273:10313 (1998)). Due to the low water solubility, the compounds were solubilized with albumin in medium at a 1:1 molar ratio. Albumin itself had no effect on growth in the concentration range employed. Since methanol was toxic to the SOD-deficient strain of E. coli even when present in medium at 0.15%, the stock solutions of the compounds were prepared in ethanol.

[3] = pH* titration / protonation of the ligand; assay type: physicochemical; details: 90/10 methanol/aqueous solution, 0.01 M tris and Pipes buffer
Experimental: Uv/vis Spectroscopy. […] Also the effects of EDTA, H2O2, and the methanol/water ratio on the stability of the manganese(III) complex were examined. […] Tris and Pipes buffers along with 1.0 M methanol/aqueous (90/10) solution of HCl were used for pH^* adjustments in methanol/aqueous solutions. The pH^* readings were measured on an Oakton pH-Meter equipped with a Denver Instruments combination glass electrode that was calibrated in methanol/water (90/10, v/v) buffer solutions: 10 mM oxalic acid/10 mM ammonium oxalate (pH^*=3.59) and 10 mM succinic acid/lithium hydrogen succinate (pH^*=6.55) (De Ligny et al. A. Rec. Trav. Chim. Pays-Bas 79:699 (1960)). When needed the biliverdin and biliverdin dimethylester as well as their reduced forms bilirubin and bilirubin dimethylester were studied.
Uv/Vis Spectroscopy. At pH^* 7.4 biliverdin dimethylester is in a fully deprotonated form, BVDME^3−. […] Carboxyl groups are separated from the main chromophores by two methylene groups, so that their ionization is not detectable spectrophotometrically. Thus the spectra of biliverdin and its ester are the same (Gray et al, J. Chem. Soc. 2276 (1961); Kuenzle et al. Biochem. J. 130:1147 (1972); O'Carra, Nature 899 (1962)). […] The kinetic trace recorded upon fast mixing of the 30 μM BVDME^3− with 75 μM or 150 μM MnCl2, fits to a single-exponential equation with a zero intercept. […]

[4] = SOD activity, xanthine oxidase/cytochrome c method; assay type: biochemical; details: for SOD-like activity (in words): 0.05 M phosphate buffer, pH 7.8, 0.1 mM EDTA
Experimental: FIG. 12. […] The v0 is the rate of reduction of 10 μM cytochrome c by O2. The vi is the rate of reduction of cytochome c inhibited by the porphyrin catalyst in the presence of 0.1 mM EDTA in 0.05 M tris buffer at pH 7.8. 40 μM xanthine. ˜2 nM xanthine oxidase at 25° C. The total volume of the assay solution is 3 mL.
SOD Activity. Catalysis of the dismutating of O2 in vitro was followed by the xanthine oxidase/cytochrome c method (McCord et al, J. Biol. Chem. 244:6049 (1969)).
Dismutation of superoxide anion, O2^−. Assays were conducted in 0.05 M aqueous phosphate buffer, pH 7.8, 0.1 mM EDTA, ±15 μg/mL of catalase, ±albumin. Rate constants for the reaction with O2^−were based upon the competition of the compounds with cytochrome c.
(§1) Two metallotetrapyrroles were tested for antioxidant activity, in vitro. In particular, the compounds were assayed for their ability to dismutate superoxide in the indirect method that utilizes xanthine and xanthine oxidase to generate superoxide and cytochrome c reduction as indicator of superoxide flux. […] The compounds were also assayed for their ability to prevent lipid peroxidation of rat brain homogenates by iron and ascorbate. The mixture of iron and ascorbate generates reactive oxygen species that oxidize biological lipids and these oxidized lipids can be detected as species that react with thiobarbituric acid (TBARS).
a) SOD activity determined using a xanthine oxidase/cytochrome c assay

[5] = Cyclic voltammetry, metal-centered redox potential; assay type: physicochemical; details: Mn(III)/Mn(II) couple; for E1/2, V vs Ag/AgCl: 90/10 (v/v) methanol/aqueous solution, pH* 7.9
Experimental: Manganese(III) Salen. The compound was prepared by the published procedure (Boucher, J. lnorg. Nucl. Chem. 36:531 (1974)). The uv/vis in water: ε235=3.70×10^4 cm^−1 M^−1, ε279=1.70×10^4 cm^−1 M^−1, ε397=4.60×10^3 cm^−M^−1. The elemental analysis: Anal. Calcd for Mn^IIIsalenCl, C16H14N2O2MnCl: C, 53.88; H, 3.96; N; 7.85. Found: C, 54.02; H, 4.06; N, 7.85. […] Based on the E1/2 of Mn^IIITM-2-PyP^5+, ferrocenemethanol and of K3Fe(CN)6 in water and methanol, the redox potential of Mn^III salen^+ in water was calculated to be E1/2=−0.13 V vs NHE.
Electrochemistry of the Manganese(III) Biliverdin Dimethylester. Measurements were made using a CH Instruments model 600 voltammetric analyzer as described previously(Batinic-Haberle et al, Inorg. Chem. 38:4011 (1999)). A three-electrode system in a small volume (0.5-3.0 mL), with a 3 mm diameter glassy carbon button working electrode (Bioanalytical Systems), Ag/AgCl reference electrode (3 M NaCl, Bioanalytical Systems), and a Pt wire (0.5 mm) as auxiliary electrode, were used. The cyclic votammetry was performed on 0.5 mM (per manganese) methanol/aqueous (90/10, v/v) solutions of the compounds investigated. The ionic strength was kept at 0.10 M (NaCl), and 0.05 M tris buffer was used for pH^* adjustment. For calibration purposes, compounds of different hydrophilicities, […], (Kolthof et al, J. Phys. Chem. 39:945 (1935)) ferrocenemethanol and Mn^IIITM-2-PyP^5+ were studied in both aqueous and methanol/aqueous (90/10, v/v) solutions (I=0.10 M NaCl, 0.05 M tris buffer, pH^* 7.9). In all cases the measured E1/2 was 170 mV more positive in methanolic than in aqueous solution and this value was used to predict the redox potential in aqueous solution from measurement in methanol/aqueous solution.

[6] = SOD activity, xanthine oxidase/cytochrome c method; assay type: biochemical; details: absence of EDTA
[7] = Degradation by H2O2 followed by uv/vis spectroscopy; assay type: physicochemical; details: pH 7.8; for fraction degraded by H2O2: 4.4 h, 60 μM
Description: Uv/vis Spectroscopy. […] Also the effects of EDTA, H2O2, and the methanol/water ratio on the stability of the manganese(III) complex were examined. […] 79:699 (1960)). When needed the biliverdin and biliverdin dimethylester as well as their reduced forms bilirubin and bilirubin dimethylester were studied. At μM concentrations, manganese(III) and iron(III) porphyrins are degraded by H2O2 in aqueous solution. pH 7.8 (Batinic-Haberle et al, Inorg. Chem. 38:4011 (1999), Everett et al, J. Trans. Faraday Soc. 49:410 (1953)). […] The reaction was followed in 90/10, v/v methanouaqueous solution at pH^* 7.9. […] The uv/vis spectroscopy indicated degradation via the reduction of biliverdin to bilirubin followed by loss of metal (Gray et al, J. Chem. Soc. 2276 (1961); Kuenzle et al, Biochem. J. 130:1147 (1972); […], Nature 899 (1962)). The interaction of biliverdin and bilirubin with H2O, was also followed in 0.05 M tris buffer, pH 7.8. As observed for its metal complex, biliverdin undergoes reduction by H2O2 via bilirubin. Under pseudo-first order conditions (6 mM to 60 mM H2O2, 60 μM biliverdin), the second-order rate constant was k=3×10^-3 M^-1 s^-1. Bilirubin is more resistant to H2O2 than biliverdin or its metal complex. The disappearance of bilirubin was followed at 435 nm (Gray et al, J. Chem. Soc. 2268 (1961)). Under conditions given above and at 60 mM H2O2, about 40% of the biliverdin and 14% of bilirubin was degraded within 4.4 hours, and about 14% of the complex was degraded inside 80 min.

[8] = H4BV^+; literature (Gray et al; Kuenzle et al; O'Carra); cited from earlier work
rat brain homogenates = assay: Lipid peroxidation of rat brain homogenates by iron/ascorbate (TBARS); assay type: biochemical; details: concentration that reduced lipid peroxidation by one-half
Experimental: The ability of mimetics to inhibit lipid peroxidation can be assessed as described by Day et al, Free Rad. Biol. Med. 26:730 (1990). Iron and ascorbate can be used to initiate lipid peroxidation in tissue homogenates and the formation of thiobarbituric acid reactive species (T BARS) measured.
as §1, with “(TBARS). Both compounds could inhibit the formation of TBARS and this ability correlated with their superoxide dismutase (SOD) activity (Table 5).” for “(TBARS).”
b) Lipid peroxidation was initiated in rat brain homogenates with iron/ascorbate and the IC50 is the concentration of compound that reduced lipid peroxidation by one-half.

[9] = Ref 4, cited from earlier work
[10] = Mn(III)/Mn(II) couple; aqueous solution (pH 7.8, 0.1 M NaCl); Ref 4; cited from earlier work

Compound: C=CC1=C(C)C2=CC3=NC(=Cc4c(CCC(=O)O)c(C)c5[n]4[Mn]([O]C4=NC(=Cc6c(C)c(CCC(=O)O)c7[n]6[Mn]([O]C6=NC(=C5)C(C=C)=C6C)[N]5C(=O)C(C=C)=C(C)C5=CC5=NC(=C7)C(CCC(=O)O)=C5C)C(C=C)=C4C)[N]2C1=O)C(CCC(=O)O)=C3C [(Mn^IIIBV)2, Mn^III Biliverdin]
- stability in water solution [1]: lacks adequate stability in water solution

Compound: C=CC1=C(C)/C(=C/C2=NC(=C\c3[nH]c(/C=C4/NC(=O)C(C)=C4C=C)c(C)c3CCC(=O)OC)/C(CCC(=O)OC)=C2C)NC1=O [BVDME^3−, Biliverdin IX dimethylester, reference compound]
- effect on SOD-deficient E. coli growing under aerobic conditions (in words) [2]: neither beneficial nor toxic
- pH* region in which protonation occurs [3]: below 4

Compound: manganese (III) bilirubin ditaurate [MnBRDT]
- SOD Activity ([4]; xanthine oxidase/cytochrome c assay): 6.2 USOD/mg
- IC50 (rat brain homogenates): 70 µM

Compound: manganese(III) tetrakis(N-methylpyridinium-2-yl)porphyrin [Mn^III/IITM-2-PyP^5−4−]
- E1/2, V vs Ag/AgCl [5]: −0.12 V vs Ag/AgCl
- kcat, O2^− dismutation ([9]; 25° C.): 6.0 × 10^7a M^−1 s^−1
- SOD specific activity [9]: 8.500^a U/mg
- E1/2, V vs NHE [10]: −0.22 V vs NHE

More lines, main results first:

- SOD-like activity (in words) [4]: observed only in the absence of chelator
- E1/2, V vs Ag/AgCl [5]: −0.23 V vs Ag/AgCl
- E1/2, V vs NHE ([5]; extrapolated/calculated redox potential in aqueous solution): −0.13 V vs NHE
- SOD specific activity [6]: 700^f U/mg
- kcat, O2^− dismutation ([6]; 25° C.): 6.0 × 10^5f M^−1 s^−1
Compound: [Cl-].[Mn+3].[O-]c1ccccc1C=NCCN=Cc1ccccc1[O-] [Mn^III/IIsalen^−/0, Manganese(III) Salen, reference compound]

- fraction degraded by H2O2 [7]: about 14%
Compound: C=CC1=C(C)/C(=C/c2[nH]c(Cc3[nH]c(/C=C4\NC(=O)C(C)=C4C=C)c(C)c3CCC(=O)O)c(CCC(=O)O)c2C)NC1=O [bilirubin, bilirubin IX]

- second-order rate constant k of reaction with H2O2 ([7]; 0.05 M tris buffer, 6 mM to 60 mM H2O2, 60 μM): 0.003 M⁻¹ s⁻¹
- fraction degraded by H2O2 [7]: about 40%
Compound: C=CC1=C(C)/C(=C/C2=NC(=C\c3[nH]c(/C=C4\NC(=O)C(C)=C4C=C)c(C)c3CCC(=O)O)/C(CCC(=O)O)=C2C)NC1=O [biliverdin, biliverdin IX]
- SOD-like activity (in words) [4]: Neither biliverdin nor bilirubin showed any observable SOD-like activity
- pKa [8]: ~3
